We go through 2 compounds from the NIST ThermoML archive (doi:10.1016/j.tca.2009.08.016).

Numbers after ± are expanded uncertainties.

A short description of data set [1]: Molar enthalpy of transition or fusion. The conditions noted are these: Crystal; DSC.
The conditions of data set [2]: Crystal; DTA.

As for `O=C(Oc1ccccc1)c1ccccc1O` [phenyl salicylate], the “Molar enthalpy of transition or fusion” value in data set [1] stood at 4.59 ± 0.239 kcal/mol. Besides, the Normal melting temperature in data set [2] turned out to be 41.93 ± 1.1 °C.

As for `CCN(CC)CC(=O)Nc1c(C)cccc1C` [2-(diethylamino)-N-(2,6-dimethylphenyl)acetamide], the “Molar enthalpy of transition or fusion” value in data set [1] came to 3.92 ± 0.12 kcal/mol. Besides, in data set [2], the Normal melting temperature is 67.54 ± 1.1 °C.
